The term MIC50 denotes the lowest concentration that inhibits either 50% of growth or 50% of the strains tested, depending on the study. Read a high MIC50 as weaker potency. What is called MIC is the lowest concentration found to suppress growth.

This note sets out measurements from US5202315A, “Cephalosporin compounds” (Lucky, Ltd., priority 1989, dated 1993).

Common to all, as to type: cell-based
One experiment has as its system Klebsiella pneumoniae. Briefly: Antibacterial activity against clinically isolated strains, MIC. To be noted: 10 clinical isolates, broth microdilution test; for MIC90: read-out: MIC 90%. (In broth dilution the organism is exposed to a series of concentrations in liquid medium.)
For experiment [1], the system named is Staphylococcus aureus ATCC 10537. The experiment in a line: Antibacterial activity, MIC. To be noted: ATCC10537, ATCC 10537, agar two-fold dilution, 37° C., 20 hours, read-out: MIC. Put shortly: (§1)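 Incubation at 37 °C for 20 h followed inoculation of 2 μl standard strain (10^7 CFU/ml) onto agar carrying the compound. Compound was incorporated into Mueller-Hinton agar as two-fold serial dilutions.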

Experiment [2] relates to Pseudomonas aeruginosa ATCC 10145. Briefly: Antibacterial activity, MIC. To be noted: ATCC10145, ATCC 10145, agar two-fold dilution, 37° C., 20 hours, read-out: MIC. Put shortly: as §1
Experiment [3] has as its system Micrococcus luteus ATCC 9341. Briefly: Antibacterial activity, MIC. To be noted: ATCC9341, ATCC 9341, agar two-fold dilution, 37° C., 20 hours, read-out: MIC. Put shortly:
as §1

Experiment [4] has as its system Streptococcus faecalis ATCC 29212. Briefly: Antibacterial activity, MIC. To be noted: Enterococcus faecalis, ATCC29212; ATCC 29212; agar two-fold dilution, 37° C., 20 hours; read-out: MIC. Put shortly:
as §1

In the next experiment the test system is Pseudomonas. Briefly: Antibacterial activity. To be noted: statement in words.

Each structure is given as a SMILES string. ≈ marks a conversion by molar mass, not a printed value. A value given as a limit tells only on which side of the number the result lay.

For the molecule `CC(O/N=C(\C(=O)NC1C(=O)N2C(C(=O)[O-])=C(CSc3nc(N)cc(N)[n+]3C)CSC12)c1csc(N)n1)C(=O)O` (centres unmarked) [Compound I-4], the MIC50 in the experiment with Klebsiella pneumoniae turned out to be 0.031 µg/mL (≈ 0.0508 µM). For the same molecule, the MIC90 in the experiment on Klebsiella pneumoniae amounted to 0.13 µg/mL (≈ 0.213 µM). Moreover, the minimum inhibitory concentration (MIC) in experiment [1] was 2 µg/mL (≈ 3.28 µM); in experiment [2], 2 µg/mL (≈ 3.28 µM); in experiment [3], 0.5 µg/mL (≈ 0.82 µM).
`C[n+]1c(N)cc(N)nc1SCC1=C(C(=O)[O-])N2C(=O)C(NC(=O)/C(=N\OCC(=O)O)c3csc(N)n3)C2SC1` (centres unmarked) [Compound I-7] showed an MIC50 with Klebsiella pneumoniae of 0.016 µg/mL (≈ 0.0269 µM). Further, in the experiment with Klebsiella pneumoniae, the MIC90 amounted to 0.031 µg/mL (≈ 0.052 µM). Also, the MIC in experiment [4] was greater than 128 µg/mL; in experiment [1], 2 µg/mL (≈ 3.36 µM); in experiment [2] it was 4 µg/mL (≈ 6.72 µM); in experiment [3], 0.5 µg/mL (≈ 0.839 µM).
`CC[n+]1c(N)cc(N)nc1SCC1=C(C(=O)[O-])N2C(=O)C(NC(=O)/C(=N\OC(C)C(=O)O)c3csc(N)n3)C2SC1` (centres unmarked) [Compound I-5] yielded an MIC50 in the experiment on Klebsiella pneumoniae of 0.063 µg/mL (≈ 0.101 µM). In the experiment on Klebsiella pneumoniae, the MIC90 amounted to 0.25 µg/mL (≈ 0.401 µM). Besides, the MIC in experiment [1] stood at 2 µg/mL (≈ 3.21 µM); in experiment [2], 2 µg/mL (≈ 3.21 µM); in experiment [3], 0.25 µg/mL (≈ 0.401 µM).
The molecule `Cc1c(N)nc(SCC2=C(C(=O)[O-])N3C(=O)C(NC(=O)/C(=N\OC(C)(C)C(=O)O)c4csc(N)n4)C3SC2)[n+](C)c1N` (centres unmarked) [Compound I-30] gave an MIC50 in the experiment on Klebsiella pneumoniae of 0.13 µg/mL (≈ 0.204 µM). The MIC90 with Klebsiella pneumoniae was 0.25 µg/mL (≈ 0.392 µM). Also, the values for the MIC in experiment [1], in experiment [2] and in experiment [3] were 2 µg/mL (≈ 3.14 µM), 2 µg/mL (≈ 3.14 µM) and 0.5 µg/mL (≈ 0.784 µM), respectively.
For the molecule `C[n+]1c(N)cc(N)nc1SCC1=C(C(=O)[O-])N2C(=O)C(NC(=O)/C(=N\OC(C)(C)C(=O)O)c3csc(N)n3)[C@H]2SC1` (some centres unmarked) [Compound I-1, 7-[(Z)-2-(2-aminothiazol-4-yl)-2-(2-carboxyprop-2-oxyimino)acetamido]-3-(4,6-diamino-1-methylpyrimidinium-2-yl) thiomethyl-3-cephem-4-carboxylate], the MIC50 in the experiment with Klebsiella pneumoniae was determined as 0.063 µg/mL (≈ 0.101 µM). Also, the MIC90 in the experiment with Klebsiella pneumoniae came out at 0.13 µg/mL (≈ 0.208 µM). Also, the “antibacterial activities, especially against Pseudomonas” value in the experiment on Pseudomonas is given as “excellent”. The MIC in experiment [1] came out at 1 µg/mL (≈ 1.6 µM); in experiment [2], 2 µg/mL (≈ 3.21 µM); in experiment [3] it was 0.25 µg/mL (≈ 0.401 µM).
In the experiment on Klebsiella pneumoniae, `CCO/N=C(\C(=O)NC1C(=O)N2C(C(=O)[O-])=C(CSc3nc(N)cc(N)[n+]3N)CSC12)c1csc(N)n1` (centres unmarked) [Compound I-16] yielded an MIC50 of 0.13 µg/mL (≈ 0.229 µM). Moreover, in the experiment with Klebsiella pneumoniae, the MIC90 amounted to 0.13 µg/mL (≈ 0.229 µM). Also, the MIC in experiment [4] came out at 32 µg/mL (≈ 56.5 µM); in experiment [1] it was 0.25 µg/mL (≈ 0.441 µM); in experiment [2], 4 µg/mL (≈ 7.06 µM); in experiment [3] it was 0.016 µg/mL (≈ 0.0282 µM).
In the experiment with Klebsiella pneumoniae, `CC[n+]1c(N)cc(N)nc1SCC1=C(C(=O)[O-])N2C(=O)C(NC(=O)/C(=N\OC(C)(C)C(=O)O)c3csc(N)n3)C2SC1` (centres unmarked) [Compound I-2] yielded an MIC50 of 0.13 µg/mL (≈ 0.204 µM). Further, the MIC90 with Klebsiella pneumoniae turned out to be 0.13 µg/mL (≈ 0.204 µM). In addition, the figures for the MIC in experiment [1], in experiment [2] and in experiment [3] were 2 µg/mL (≈ 3.14 µM), 2 µg/mL (≈ 3.14 µM) and 0.25 µg/mL (≈ 0.392 µM), respectively.
In the case of `CCC[n+]1c(N)cc(N)nc1SCC1=C(C(=O)[O-])N2C(=O)C(NC(=O)/C(=N\OC(C)C(=O)O)c3csc(N)n3)C2SC1` (centres unmarked) [Compound I-45], in the experiment with Klebsiella pneumoniae, the MIC50 was 0.13 µg/mL (≈ 0.204 µM). In the experiment on Klebsiella pneumoniae, the MIC90 was determined as 0.13 µg/mL (≈ 0.204 µM). For the same molecule, the MIC in experiment [4] was greater than 128 µg/mL; in experiment [1] it was 2 µg/mL (≈ 3.14 µM); in experiment [2], 4 µg/mL (≈ 6.27 µM); in experiment [3] it was 0.5 µg/mL (≈ 0.784 µM).
